Assay results: patent publication US20170305984A1, “STATHERIN PEPTIDES” (THE UNIVERSITY OF WESTERN ONTARIO, priority 2014, published 2017)
“Also recorded” adds a separate entry of the source. Marks after values point to notes of the source that are not given here. Square brackets hold non-standard residues; d marks the D form. Ends that are not written are not given here. pS = N[C@@H](COP(=O)(O)O)C(=O)O

Assays:
[1] = Enamel demineralization with chitosan nanoparticle coatings: calcium and phosphate released from enamel (Table 3); set-up: species or system human; conditions: for demineralization / acid protection (in words): coated enamel vs not coated control, pH 4.5, 12 days
Protocol: Demineralization studies are conducted using thin sections of human enamel. Enamel minerals were analyzed using microradiography. To determine the influence of selected chitosan encapsulated salivary proteins on enamel demineralization, resin-coated enamel sections were first exposed to solutions containing chitosan encapsulated salivary proteins at a concentration of 1.0 mg/ml for 2 h at 37° C. To mimic the acidic environment of dental caries, chitosan encapsulated salivary proteins and control sections were placed into individual tubes with 3 ml of a demineralization solution containing 2.2 mM CaCl2, 2.2 mM NaH2PO4, 5 mM acetic acid, a pH 4.5. The sample was incubated at 37° C. with gentle agitation for a period of 12 days. All solutions contained 3 mM sodium azide as a bacteriostatic agent. Immediately after the demineralization period, the specimens were extensively washed with distilled water and dried with filter paper. Mineral loss was evaluated by comparing the microradiography taken before and after exposure to the acidic conditions. Enamel pieces were prepared as described and coated with chitosan nanoparticles, DR-9 encapsulated in chitosan nanoparticles, DR-9, and 0.05% NaF (gold standard group). In some groups, parotid saliva was allowed to adsorb first on enamel species to mimic the AEP (Table 3). Adsorption was allowed to proceed for a period of 2 hours at 37° C. with gentle agitation. Enamel specimens were then washed with distilled water and immersed in a demineralization solution, pH 4.5 for 12 days. This solution was used to measure the amount of calcium and phosphate released from enamel.

[2] = Chitosan encapsulation rate, ELISA of remaining unencapsulated protein or peptide; type: physicochemical; conditions: encapsulation in chitosan nanoparticles
Excerpt: Based on the optimized parameters for construction of chitosan micro- and nanoparticles, AEP was mixed directly with the chitosan solution. Chitosan micro- and nanoparticles were constructed, as described above, and the particles were characterized through Zeta sizing and SEM. Reverse Phase-High Performance Liquid Chromatography (RP-HPLC) and/or enzyme-linked immunosorbent assay (ELISA) was used to determine the degree of encapsulation by measuring the amount of free peptides, before and after the encapsulation procedure. Chitosan encapsulation of histatin 5, DR-9, RR-14 and bovine serum albumin was carried out to determine the chitosan encapsulation rate. ELISA assay assessed the remaining unencapsulated protein or peptide.

[3] = Enamel demineralization protection by constructed peptides: calcium and phosphate released from enamel (Example 1); set-up: species or system human; conditions: for Mean Ca Conc. (calcium released from human enamel) / Mean PO4 Conc. (phosphate released from human enamel): 1 mg/mL peptide 2 hours 37° C., then demineralization solution pH 4.5, 37° C., 12 days, mean ± SD; for Enamel demineralization protection / mineral loss (in words): versus distilled water control and other groups, ANOVA, Tukey
Excerpt: Enamel sample preparation was done as previously described (Siqueira et. al. 2010, J Dent Res. 2010; 89: 626-630, the relevant contents of which are incorporated herein by reference). Briefly, human permanent first molars without defects were cleaned, rinsed, and sectioned. After having the roots removed, the crowns were sliced sagittally into 4 sections (each with a 300 μm thickness) using a diamond saw, followed by grinding to a thickness of 150 μm using sandpaper. Each specimen was coated with a layer of light-cured dental adhesive (3M ESPE Scotchbond™ Universal) and nail varnish, excluding an untouched 2 mm window on the natural surface enamel. Each specimen was submerged in 1 mg/mL construct peptide solution or distilled water (control group) and incubated for 2 hours at 37° C. After this period, the samples were then submerged in 1 mL of demineralization solution (0.05M acetic acid; 2.2 mM CaCl2; 2.2 mM NaH2PO4; pH 4.5) at 37° C. for 12 days. Afterward, they were rinsed thoroughly with distilled water and dried with filter paper to remove any remaining acid residue. The remaining 1 mL of acidic solution was used to assess the calcium and phosphate concentration released from enamel during the demineralization process. The calcium concentration of the solution was assessed using a quantitative colorimetric calcium determination assay (QuantiChrom™ Calcium Assay Kit, Bioassay Systems, Hayward, Calif., USA) with a UV-visible spectrophotometer to determine the optical density at a wavelength of 612 nm. The phosphate concentration was assessed using a colorimetric assay (PiColorLock™ Gold Detection System, Innova Biosciences, Cambridge, U.K.) and UV-visible spectrophotometer, to determine the optical density at a wavelength of 635 nm. All samples were analyzed in duplicate. Statistical analysis was performed with ANOVA and the Tukey Range Test.

[4] = all studied concentrations, compared to other native statherin peptides; p<0.05; cited from earlier work
[5] = Inhibition of spontaneous precipitation of supersaturated calcium phosphate solutions (Alizarin Red S, 570 nm); conditions: all test concentrations, compared to a group without any inhibitor; FIG. 4
Protocol: To investigate the ability of the chitosan encapsulated AEP proteins/peptides to prevent crystal growth, microtiter plates were coated with proteins/peptides in a HEPES buffer at RT for 1 h. The wells were washed followed by the addition of a solution containing phosphate (15 mM; pH 7.4), NaCl (150 mM) and CaCl2 (50 mM). The solutions were incubated for 4 h at room temperature, allowing the formation of hydroxyapatite crystals. After this period, the solution was removed, 5% Alizarin Red S (pH 4.2), was added, followed by cerylpyridinium chloride. Crystal production was analyzed spectrophotometrically at 570 nm.

[6] = adsorbed for 2 hrs at 37° C., demineralization solution pH 4.5 for 12 days, n = 10

Row | Molecule | Encapsulation Efficiency [2] [%] | Mean Ca Conc. (calcium released from human enamel) [3] | Mean PO4 Conc. (phosphate released from human enamel) [3] | Enamel demineralization protection / mineral loss (in words) [3] | other results
1 | [F-].[Na+] [NaF] |  |  |  |  | Calcium released from enamel [1, 6]: 0.30 ± 0.13 ^b mM; Phosphate released from enamel [1, 6]: 0.17 ± 0.06 ^b mM; demineralization / acid protection (in words) [1]: better acid protection
2 | Bovine Serum Albumin: model protein for chitosan encapsulation | 88.3 |  |  |  | 
3 | DSpSpEEKFLR (D[pS][pS]EEKFLR) [DR9] | 75.5 | 1.455 ± 2.13^B, C mM | 0.849 ± 1.80^B, C mM |  | demineralization / acid protection (in words) [1]: intermediary level of demineralization protection; hydroxyapatite growth inhibition [4]: significant effect; inhibition of calcium phosphate crystal growth [5]: statistically significant inhibition of calcium phosphate crystal growth
4 | DSpSpEEKFLRDSpSpEEKFLR (D[pS][pS]EEKFLRD[pS][pS]EEKFLR) [DR9-DR9] |  | 0.581 ± 0.16^C mM | 0.514 ± 0.18^C mM | lowest mineral loss; also recorded: amplified by DR9-DR9 when compared to single DR9 or statherin | 
5 | DSpSpEEKFLRRIGRFGYGYGPYQPVPEQPLYPQPYQPQYQQYTF (D[pS][pS]EEKFLRRIGRFGYGYGPYQPVPEQPLYPQPYQPQYQQYTF) [Statherin] |  | 1.117 ± 1.29^B, C mM | 0.681 ± 1.11^B, C mM |  | 
6 | DSpSpEEKFLRRKFHEKHHSHRGYR (D[pS][pS]EEKFLRRKFHEKHHSHRGYR) [DR9-RR14] |  | 3.132 ± 2.46^B mM | 2.282 ± 2.01^B mM | intermediate value among the groups; also recorded: able to maintain the biological function of one of the precursor proteins, statherin | 
7 | DSpSpEEKFLRVPAGLRKFHEKHHSHRGYR (D[pS][pS]EEKFLRVPAGLRKFHEKHHSHRGYR) [DR9-VPAGL-RR14] |  | 4.755 ± 1.35^A mM | 3.917 ± 0.82^A mM | did not provide any increased demineralization protection over the control | 
8 | DSpSpEEKFLRVPLSLRKFHEKHHSHRGYR (D[pS][pS]EEKFLRVPLSLRKFHEKHHSHRGYR) [DR9-VPLSL-RR14] |  | 4.106 ± 2.13^A mM | 3.159 ± 1.85^A mM | did not provide any increased demineralization protection over the control | 
9 | Histatin 5 | 82.9 |  |  |  | 
10 | RKFHEKHHSHRGYR [RR-14] | 93.1 |  |  |  | 
